According to US20240148679A1, “METHODS AND COMPOSITIONS RELATED TO TREATMENT AND PREVENTION OF CANCER BY INHIBITION OF DGAT1 AND DGAT2” (Ohio State Innovation Foundation, priority 2019, published 2024):

Legend:
liver cancer cells = test: Liver cancer cell death with DGAT1 and DGAT2 inhibitors alone or in combination; format: cell-based, human
Procedure: MHCC97L 6×10^4 12 well plate, treated at 24 hours with 1% FBS DMEM with DGAT1 and DGAT2 inhibitors. Picture taken on day 4.
HEPG2 6×10^4 12 well plate, treated at 24 hours with 1% FBS DMEM with DGAT1 and DGAT2 inhibitors. Picture taken on day 4.
HeG2 8×10^4 12 well plate, treated at 24 hours with 1% FBS DMEM with DGAT1 and DGAT2 inhibitors. Picture taken on day 4.
Huh7 4×10^4 12-well plate, treated at 24 hours with 1% FBS DMEM with DGAT1 and DGAT2 inhibitors. Picture taken on day 4.
Hep3B 6×10^4 12-well plate, treated at 24 hours with 1% FBS DMEM with DGAT1 and DGAT2 inhibitors. Picture taken on day 4.
Huh7 6×10^4 12-well plate, treated at 24 hours with 1% FBS DMEM with DGAT1 and DGAT2 inhibitors. Picture taken on day 4.

GBM cells (U251) = test: Seahorse analysis of OCR and ECAR; format: cell-based, human; conditions: 20 μg/ml for 24 hours; for oxygen consumption rate (OCR): vs control cells
Procedure: (A, B) Transmission electron microscopy (TEM) analysis of the mitochondrial morphology in GBM cells (U251) treated with the DGAT1 inhibitor A-922500 (20 μg/ml) or DGAT2 inhibitor PF-06424439 (20 μg/ml) for 24 hr and shown in a or infected with shRNA-expressing lentivirus against DGAT1 for 48 hr and shown in b. Scale bar, 500 nm. Mitochondria are indicated by red arrows. Mitochondria length and loss of cristae (%) were quantified by ImageJ over 100 mitochondria in each group (mean±SEM). Statistical significance was determined by one-way ANOVA. * P<0.0001. (C, D) Representative fluorescence images of LDs (green) and mitochondria (red) in U251 cells treated with DGAT1 or DGAT2 inhibitor and shown in c or shRNA in (D) as in panels (A, B). LDs were stained with BODIPY 493/503 (green) and mitochondria were stained with MitoTracker Red. Nuclei were stained with Hoechst 33342 (blue). Scale bar, m. The percentage of cells with tubular or fragmented mitochondria was quantified by ImageJ in more than 100 cells (mean±SEM). Statistical significance was determined by one-way ANOVA. * P<0.001. (E, F) Analysis of mitochondrial activity by measuring oxygen consumption rate (OCR) in U251 cells treated with DGAT1/DGAT2 inhibitors or shRNA as in panels (A, B). Lower panels show the quantification of relative basal and maximal OCR change (details please see Methods). Data represent the mean±SD from 3 independent experiments. Basal OCR was determined as OCR before oligomycin subtract OCR after rotenone addition, and maximal OCR was determined as OCR after FCCP subtract OCR after rotenone addition. Statistical significance was determined by one-way ANOVA. * P<0.0001. (G, H) Representative fluorescence images of reactive oxygen species (ROS) production and mitochondria (green) in U251 cells treated with DGAT1/DGAT2 inhibitors or shRNA as in panels (A, B). ROS were detected with CellROX Deep Red, and mitochondria were stained with MitoTracker Green. Nuclei were stained with Hoechst 33342 (blue). Scale bar, 10 m. ROS levels were quantified by ImageJ in more than 100 cells (mean±SD). Statistical significance was determined by one-way ANOVA. * P<0.0001. (I, J) Representative fluorescence images of ROS levels (red) detected by CellROX Deep Red in U251 cells treated with the DGAT1 inhibitor or shRNA as in panels a and b in the presence or absence of N-acetyl-cysteine (NAC, 1 mM). Nuclei were stained with Hoechst 33342 (blue). Scale bar, 10 m. ROS levels were quantified by ImageJ in more than 100 cells (mean±SD) (right upper panels). Live and dead cells were counted by trypan blue staining after treatment for 3 days (mean±SD, n=3) (right bottom panels). Statistical significance was determined by one-way ANOVA. * P<0.0001. […]

[1] = DGAT1 inhibitor in combination with DGAT2 inhibitor

SMILES | liver cancer cell death (liver cancer cells; [1]) | liver cancer cell death (liver cancer cells; each single inhibitor) | extracellular acidification rate (ECAR) (GBM cells (U251)) | oxygen consumption rate (OCR) (GBM cells (U251))
O=C(Nc1ccccc1)Nc1ccc(-c2ccc(C(=O)[C@@H]3CCC[C@H]3C(=O)O)cc2)cc1 [A-922500] | effective to kill liver cancer cells | no ability to induce liver cancer cell death | did not affect | markedly reduced
CS(=O)(=O)O.O=C([C@@H]1CCCN(c2ccc3[nH]c(C4(n5cc(Cl)cn5)CC4)nc3n2)C1)N1CCCC1 [PF-06424439] | effective to kill liver cancer cells | no ability to induce liver cancer cell death | did not affect | no reduction was observed
